The results in this text go back to patent publication US7176163B1, “Pharmacological effect potentiators for pesticides” (Meija Seika Kaisha, Ltd., priority 2000, dated 2007).

Test [1] relates to cotyledon of cucumber (variety: Yotsuba). Briefly: Microbicide (Benomyl) absorption enhancement by spraying jasmonic acids. The class given is in vivo. The method, then: In the present test, Benlate (registered trademark, manufactured by DuPont Corp., containing 50% of Benomyl as the main component) was used as microbicide. As a test material, cotyledon of cucumber (variety: Yotsuba) was used and absorption amount of the microbicide (hereinafter, referred to as “Benomyl absorption amount”) was measured. To the cucumber on day 10 after the seeding was uniformly sprayed 0.22 ml per individual of 0.1% Benlate solution (0.05% Benomyl containing solution) that contains methyl jasmonate (hereinafeter, abbreviated as “MeJA”) or n-propyl (2-pentyl-3-oxocyclopentyl)acetate, also named n-propyldihydrojasmonic acid (hereinafter, abbreviated as “PDJ”) and the cucumber was placed in a glass-made chamber. MeJA or PDJ was mixed to make 0.001 ppm, 0.01 ppm, 0.1 ppm, 1.0 ppm, or 5.0 ppm based on the Benlate solution amount and applied simultaneously. After sealing the lid of the chamber, the cucumber was cultivated in an air-conditioned room. As a control, similarly Benlate-treated cucumber seedlings were placed in a separate chamber and cultivated.
After two days of cultivation, the cotyledons were cut off and the surfaces of them were washed carefully with a neutral detergent. The cotyledons were ground and extracted with heating. The treatment of extraction solution and quantitation of Benomyl were carried out by high performance liquid chromatography referring to the quantitation method of Benomyl in Residual Pesticide Standards Handbook (Kagaku Kogyo Nippo, 1995, pp843-845) using 2-methylbenzimidazolecarbamate, which is a metabolite of Benomyl, as an indicator. […] As will be apparent from Table 1, enhancement of the absorption of Benomyl by application of MeJA or PDJ was observed.
Tests on microbicide absorption enhancement were performed in the same manner as in Test Example 1 using the following compounds. Common names and abbreviations of each compound are shown in the brackets. The compounds were synthesized in the same manner as in the examples in Japanese Patent Application Laid-open No. Hei 11-140022. • 1. […] (dihydrojasmonic acid: DJA) • 2. allyl (2-pentyl-3-oxocyclopentyl)acetate (allyl dihydrojasmonate: ADJ) • 3. 2-pentenyl (2-pentyl-3-oxocyclopentyl)acetate (dihydrojasmonic acid-2-pentenyl: PEDJ) • 4. 3-butenyl (2-pentyl-3-oxocyclopentyl)acetate (dihydrojasmonic acid-3-butenyl: BEDJ) • 5. 3-butynyl (2-pentyl-3-oxocyclopentyl)acetate (butynyl dihydrojasmonate : BYDJ)
Each compound was mixed so that it occupies 0.01 ppm based on the Benlate solution and given at the same time. Extraction and quantitation were practiced by the methods described in Test Example 1. The results are shown as relative values of Benomyl absorption amount in each lot to that of control. As a result, as will be apparent from Table 6, enhancement of absorption of Benomyl was confirmed.

The subject of another test is cucumber powdery mildew. The test can be described thus: Powdery mildew preventive effect improvement by methyl jasmonate fumigation. Type of test: in vivo, Sphaeheca fuliginea. Particulars: MeJA fumigation 25 μl/m^3 after 0.1% Benlate spraying; infection on day 3; control lot (no fumigation) = 100. The method, then:
Cucumber seedlings were cultivated in the same manner as in Test Example 2 and uniformly sprayed with 0.22 ml per individual of 0.1% Benlate solution (0.05% Benomyl containing solution). Thereafter, MeJA fumigation was performed as follows. MeJA Stock solution was charged in an open Petri dish (φ60 mm) to 25 μl/m^3, which was placed in a glass-made chamber and then sealed. On day 3 after the initiation of the fumigation, cucumber powdery mildew was infected in the same manner as in Test Example 3 and powdery mildew plaque number was counted. […] The control lot means a lot in which no MeJA fumigation was performed. Thus, it was confirmed that MeJA fumigation further improved the powdery mildew preventive effect of Benomyl.

A further test concerns cucumber seedlings. The test can be described thus: Benomyl absorption enhancement by fumigation of methyl jasmonate. To be noted: MeJA fumigation 25 μl/m^3, natural diffusion in sealed chamber; seedlings sprayed with 0.1% Benlate solution. The class given is in vivo. As to the method: MeJA was applied as follows. MeJA Stock solution was charged in an open Petri dish (φ60 mm) to 25 μl/m^3, which was placed in a glass-made chamber and then sealed and allowed to naturally diffuse. Then, cucumber seedlings uniformly sprayed with 0.22 ml per individual of 0.1% Benlate solution (0.05% Benomyl containing solution) were placed and sealed. This was cultivated in an air-conditioned room. As a control cucumber seedlings that had been similarly treated with Benlate but not fumigated with MeJA were placed in a separate chamber and cultivated. Extraction was made in the same manner as in Test Example 1 and comparative quantitation in comparison with control lot was made.

Test [2] concerns cucumber powdery mildew (Sphaeheca fuliginea). Briefly: Powdery mildew preventive effect improvement by PDJ spraying. Type of test: in vivo. To be noted: infection 3 days after application, plaques counted after 10 days, control lot (Benlate without PDJ) = 100. The method, then:
Cucumber seedlings were cultivated in the same manner as in Test Example 1 and uniformly sprayed with 0.22 ml per individual of 0.1% Benlate solution (0.05% Benomyl containing solution) mixed with PDJ in an amount of 0.01 ppm or 0.1 ppm based on the amount of Benlate solution. After 3 days from the application of Benlate solution, a spore suspension of cucumber powdery mildew (Sphaeheca fuliginea) prepared to 1.0×10^5 cells/ml was sprayed (0.2 ml per individual) on a first true leaf of each seedling and the seedlings were cultivated in a glass-made chamber. After 10 days, powdery mildew plagues were counted. […] Morbidity=(Average of powdery mildew plaque number on cucumber first true leaf in each treated lot)/(Average of powdery mildew plaque number on cucumber first true leaf in control lot)×100
Here, the control lot means a lot that is treated with a Benlate solution containing no PDJ. Thus, it was confirmed that PDJ spraying further increased the powdery mildew preventive effect of Benomyl.

In a further test the test system is Poa annua. The test can be described thus: Herbicidal effect enhancement by PDJ spraying. The class given is in vivo. To be noted: Herbie liquid diluted 1/1000 plus PDJ 0.01 ppm; sprayed 5 ml/15 individuals; dry weight of above-ground part after 2 weeks. The method, then:
Seeds of Poa annua were sown on commercially available cultivation soil for raising seedlings and after about 2 weeks of cultivation, seedlings of about 6 cm in height were obtained. For each lots, tests were performed in 5 series each with 3 individuals. The herbicide used was Herbie liquid (registered trademark of Meiji Seika Kaisha Limited, 18% Bialaphos containing solution) diluted to 1/1000. PDJ was used as a pharmacological action enhancer and this was added in an amount of 0.01 ppm based on the liquid amount of the herbicide. Application to the plant body was performed by spraying in an amount of 5 ml/15 individuals. After 2 weeks from the application, the dry weight of above-ground part was measured and mortality was calculated in accordance with the following equation and the effect was compared. […] Wilting Mortality={1−(growth amount of applied lot/growth amount of non-applied lot)}×100

[3] abbreviates: Test Example 6: 0.01 ppm based on the Benlate solution, given at the same time.
The mark [4] stands for this setting: 0.001 ppm in 0.1% Benlate solution, sprayed simultaneously, cucumber cotyledons after two days.
[5] abbreviates: 0.01 ppm in 0.1% Benlate solution, sprayed simultaneously, cucumber cotyledons after two days.
The mark [6] stands for this setting: 0.1 ppm in 0.1% Benlate solution, sprayed simultaneously, cucumber cotyledons after two days.
The mark [7] stands for this setting: 1.0 ppm in 0.1% Benlate solution, sprayed simultaneously, cucumber cotyledons after two days.

As to `C=CCOC(=O)CC1CCC(=O)C1CCCCC` (stereo not drawn) [ADJ, allyl (2-pentyl-3-oxocyclopentyl)acetate], the “Relative value (%) of Benomyl absorption amount to that of control lot” value (“Relative value (%)” for short) in test [1] (setting [3]) is 145%.

As for `C=CCCOC(=O)CC1CCC(=O)C1CCCCC` (stereo not drawn) [BEDJ, 3-butenyl (2-pentyl-3-oxocyclopentyl)acetate], in test [1] (setting [3]), the “Relative value (%)” value was 155%.

For the compound `C#CCCOC(=O)CC1CCC(=O)C1CCCCC` (stereo not drawn) [BYDJ, 3-butynyl (2-pentyl-3-oxocyclopentyl)acetate], in test [1] (setting [3]), the “Relative value (%)” value is 130%.

With `CC/C=C\CC1C(=O)CCC1CC(=O)OC` (stereo not drawn) [MeJA], the “Powdery Mildew Morbidity” value with cucumber powdery mildew came out at 76. Besides, the “Relative value (%)” value in the test on cucumber seedlings turned out to be 144%; in test [1] (setting [4]) it was 96%; in test [1] (setting [5]), 124%; in test [1] (setting [6]), 127%; in test [1] (setting [7]), 142%; in test [1] (5.0 ppm in 0.1% Benlate solution, sprayed simultaneously, cucumber cotyledons after two days), 113%.

Turning to `CCCCCC1C(=O)CCC1CC(=O)OCCC` (stereo not drawn) [PDJ, n-propyl (2-pentyl-3-oxocyclopentyl)acetate], the “Relative value (%)” value in test [1] (setting [4]) stood at 103%; in test [1] (setting [5]), 136%; in test [1] (setting [6]), 118%; in test [1] (setting [7]), 110%. Moreover, the “Powdery Mildew Morbidity” value is 70 in test [2] (PDJ 0.01 ppm in 0.1% Benlate solution) and 88 in test [2] (PDJ 0.1 ppm in 0.1% Benlate solution). The Wilting Mortality in the test with Poa annua was found to be 81.2%.

Regarding `CCC=CCOC(=O)CC1CCC(=O)C1CCCCC` (stereo not drawn) [PEDJ, 2-pentenyl (2-pentyl-3-oxocyclopentyl)acetate], the “Relative value (%)” value in test [1] (setting [3]) turned out to be 130%.
